As a reminder, the IC50 is the point on the concentration scale where inhibition reaches its midpoint.

Where two headings read alike, the source gives them in different places.

The values below come from US11464770B2, “Anticancer pharmaceutical composition” (NATIONAL CANCER CENTER, priority 2016, dated 2022).

The test system of assay [1] is blood cancer cell lines (e.g. HL-60, Jurkat, Raji, Ramos, Daudi, MOLT-4). The experiment in a line: Cell based assay, cell viability (CellTiter-Glo), blood cancer cell lines. As to conditions: Homo sapiens. In outline: (§1)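 Each commercial line was plated and allowed 24 h to settle at constant temperature. Compound exposure ran 72 h at final concentrations spanning 0 to 2 μM. Cell viability was then determined by luminescent ATP detection.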
A general note: ATP-based viability assays read luminescence as a measure of living cells.

The test system of assay [2] is pancreatic cancer cell lines (e.g. MIA PaCa-2). The experiment in a line: Cell based assay, cell viability (CellTiter-Glo), pancreatic cancer cell lines. The note with it: Homo sapiens. Summed up: as §1
The test system of assay [3] is cervical carcinoma cell lines. The experiment in a line: Cell based assay, cell viability (CellTiter-Glo), cervical carcinoma cell lines. The note with it: Homo sapiens; HeLa cells.
The test system of assay [4] is RT4: human urinary bladder transitional cell papilloma. The experiment in a line: Cell based assay, cytotoxicity in RT4 papilloma cells (selectivity). As to conditions: Homo sapiens, RT-4; RT4 cells.
Where [5] appears, read: MV4-11, blood cancer cell line MV-4-11, 72 hours, read-out: IC50, MV-4-11.
[6] abbreviates: blood cancer cell line Daudi, 72 hours, read-out: IC50, Daudi.
The mark [7] stands for this setting: blood cancer cell line HL-60, 72 hours, read-out: IC50, HL-60.
Setting [8] is: blood cancer cell line Jurkat, 72 hours, read-out: IC50, Jurkat.
Setting [9] is: blood cancer cell line MOLT-4, 72 hours, read-out: IC50, MOLT-4.
The mark [10] stands for this setting: blood cancer cell line Raji, 72 hours, read-out: IC50, Raji.
[11] abbreviates: blood cancer cell line Ramos (RA 1), 72 hours, read-out: IC50, Ramos (RA 1).
Setting [12] is: blood cancer cell line U-937, 72 hours, read-out: IC50, U-937.
[13] abbreviates: pancreatic cancer cell line AsPC-1, 72 hours, read-out: IC50, AsPC-1.
Where [14] appears, read: pancreatic cancer cell line BxPC-3, 72 hours, read-out: IC50, BxPC-3.
[15] abbreviates: pancreatic cancer cell line CFPAC-1, 72 hours, read-out: IC50, CFPAC-1.
The mark [16] stands for this setting: pancreatic cancer cell line Capan-1, 72 hours, read-out: IC50, Capan-1.
Where [17] appears, read: pancreatic cancer cell line Capan-2, 72 hours, read-out: IC50, Capan-2.
The mark [18] stands for this setting: pancreatic cancer cell line MIA PaCa-2, 72 hours, read-out: IC50, MIA PaCa-2.
Setting [19] is: pancreatic cancer cell line PANC-1, 72 hours, read-out: IC50, PANC-1.

Take `CC(=O)c1c([S+]([O-])Cc2ccc(F)cc2F)[nH]c2c(Br)ccc(Cl)c2c1=O` (stereo not drawn) [Compound 29, 3-acetyl-8-bromo-5-chloro-2-((2,4-difluorobenzyl)sulfinyl)quinolin-4(1H)-one]: the IC50 in assay [1] (setting [5]) was 1400 nM; in assay [1] (setting [6]), over 2000 nM; in assay [1] (setting [7]), 1720 nM; in assay [1] (setting [8]), 1080 nM; in assay [1] (setting [9]), 1440 nM; in assay [1] (setting [10]), 1180 nM. In addition, the IC50 in assay [1] (setting [11]) was 1670 nM; in assay [1] (setting [12]), 1050 nM; in assay [2] (setting [13]) it was over 2000 nM; in assay [2] (setting [14]) it was over 2000 nM; in assay [2] (setting [15]), over 10000 nM; in assay [2] (setting [16]) it was over 2000 nM. Further, the IC50 in assay [2] (setting [17]) is over 2000 nM; in assay [2] (setting [18]), 1190 nM; in assay [2] (setting [19]), over 2000 nM; in assay [3], over 10000 nM; in assay [4], over 10000 nM.

Regarding `CC(=O)c1c([S+]([O-])Cc2ccc(F)c(Cl)c2)[nH]c2c(Br)ccc(Cl)c2c1=O` (stereo not drawn) [Compound 31, 3-acetyl-8-bromo-5-chloro-2-((3-chloro-4-fluorobenzyl)sulfinyl)quinolin-4(1H)-one], the IC50 is over 2000 nM in assay [1] (setting [5]); 1650 nM in assay [1] (setting [6]); 1930 nM in assay [1] (setting [7]); 940 nM in assay [1] (setting [8]); 1350 nM in assay [1] (setting [9]); 1100 nM in assay [1] (setting [10]). The IC50 in assay [1] (setting [11]) was 1830 nM; in assay [1] (setting [12]), over 2000 nM; in assay [2] (setting [13]), over 2000 nM; in assay [2] (setting [14]) it was over 2000 nM; in assay [2] (setting [15]), over 10000 nM; in assay [2] (setting [16]) it was over 2000 nM. Also, the IC50 was over 2000 nM in assay [2] (setting [17]); 1180 nM in assay [2] (setting [18]); over 2000 nM in assay [2] (setting [19]); over 10000 nM in assay [3]; over 10000 nM in assay [4].

As for `CC(=O)c1c([S+]([O-])Cc2ccc([N+](=O)[O-])cc2)[nH]c2c(Br)ccc(Cl)c2c1=O` (stereo not drawn) [Compound 33, 3-acetyl-8-bromo-5-chloro-2-((4-nitrobenzyl)sulfinyl)quinolin-4(1H)-one], the IC50 in assay [1] (setting [5]) was 1280 nM; in assay [1] (setting [6]), over 2000 nM; in assay [1] (setting [7]), 1770 nM; in assay [1] (setting [8]), 1030 nM; in assay [1] (setting [9]) it was 1440 nM; in assay [1] (setting [10]) it was 970 nM. Also, the IC50 was over 2000 nM in assay [1] (setting [11]); over 2000 nM in assay [1] (setting [12]); over 2000 nM in assay [2] (setting [13]); over 2000 nM in assay [2] (setting [14]); over 10000 nM in assay [2] (setting [15]); over 2000 nM in assay [2] (setting [16]). Moreover, the half-inhibitory concentration (IC50) is over 2000 nM in assay [2] (setting [17]); 1040 nM in assay [2] (setting [18]); over 2000 nM in assay [2] (setting [19]); over 10000 nM in assay [3]; over 10000 nM in assay [4].

For the molecule `CC(=O)c1c(S(=O)(=O)Cc2ccccc2)[nH]c2c(Br)ccc(Cl)c2c1=O` [Compound 34, 3-acetyl-2-(benzylsulfonyl)-8-bromo-5-chloroquinolin-4(1H)-one], the IC50 in assay [1] (setting [5]), in assay [1] (setting [6]), in assay [1] (setting [7]), in assay [1] (setting [8]), in assay [1] (setting [9]) and in assay [1] (setting [10]) was over 2000 nM in each case. In addition, the IC50 is over 2000 nM in assay [1] (setting [11]); over 2000 nM in assay [1] (setting [12]); over 2000 nM in assay [2] (setting [13]); over 2000 nM in assay [2] (setting [14]); over 10000 nM in assay [2] (setting [15]); over 2000 nM in assay [2] (setting [16]). In addition, the IC50 in assay [2] (setting [17]) is over 2000 nM; in assay [2] (setting [18]), 1990 nM; in assay [2] (setting [19]), over 2000 nM; in assay [3], over 10000 nM; in assay [4] it was over 10000 nM.

In the case of `CC(=O)c1c([S+]([O-])Cc2cc(Cl)ccc2Cl)[nH]c2c(Br)ccc(Cl)c2c1=O` (stereo not drawn) [Compound 44, 3-acetyl-8-bromo-5-chloro-2-((2,5-dichlorobenzyl)sulfinyl)quinolin-4(1H)-one], the IC50 was 1980 nM in assay [1] (setting [5]); 1800 nM in assay [1] (setting [6]); 1730 nM in assay [1] (setting [7]); 1130 nM in assay [1] (setting [8]); 1470 nM in assay [1] (setting [9]); 1160 nM in assay [1] (setting [10]). Further, the IC50 is 1930 nM in assay [1] (setting [11]); over 2000 nM in assay [1] (setting [12]); over 2000 nM in assay [2] (setting [13]); over 2000 nM in assay [2] (setting [14]); over 10000 nM in assay [2] (setting [15]); over 2000 nM in assay [2] (setting [16]). The concentration for half-maximal inhibition (IC50) was over 2000 nM in assay [2] (setting [17]); 1230 nM in assay [2] (setting [18]); over 2000 nM in assay [2] (setting [19]); over 10000 nM in assay [3]; over 10000 nM in assay [4].

In the case of `CC(=O)c1c([S+]([O-])Cc2cc(F)cc(F)c2)[nH]c2c(Br)ccc(Cl)c2c1=O` (stereo not drawn) [Compound 46, 3-acetyl-8-bromo-5-chloro-2-((3,5-difluorobenzyl)sulfinyl)quinolin-4(1H)-one], the IC50 in assay [1] (setting [5]), in assay [1] (setting [6]), in assay [1] (setting [7]), in assay [1] (setting [8]), in assay [1] (setting [9]) and in assay [1] (setting [10]) was over 2000 nM throughout. The 50% inhibitory concentration (IC50) in assay [1] (setting [11]) was over 2000 nM; in assay [1] (setting [12]), over 2000 nM; in assay [2] (setting [13]), over 2000 nM; in assay [2] (setting [14]) it was over 2000 nM; in assay [2] (setting [15]) it was over 10000 nM; in assay [2] (setting [16]) it was over 2000 nM. Moreover, the IC50 is over 2000 nM in assay [2] (setting [17]); 1570 nM in assay [2] (setting [18]); over 2000 nM in assay [2] (setting [19]); over 10000 nM in assay [3]; over 10000 nM in assay [4].
